Data reported in patent US20200109117A1, “Modified Therapeutic Agent Analogs of Mefenamic Acid” (ACCESS Association, priority 2018, published 2020).
Where two headings read alike, the source gives them in different places.

Experiments:
[1] = Solubility in distilled water and normal saline, visual inspection and HPLC; format: physicochemical; settings: for Aqueous solubility checked on HPLC: aqueous solution, analogs compared with MFA; for Aqueous solubility on visual inspection: analogs compared with parent MFA
Description: The solubility of each molecular structure was checked in distilled water as well as in normal saline.

[2] = pH 7.1; cited from earlier work
[3] = test system: pilocarpine-induced seizure rats; test: BBB permeability by contrast-enhanced MRI (Gd-DTPA) in rat seizure pre-clinical model; format: in vivo
Protocol: Structure (I), MFA-NIC, was assessed as a possible therapeutic in a rat seizure pre-clinical model. Assessments were conducted using Contrast-enhanced (CE) magnetic resonance (MR) imaging (MRI) and MR spectroscopy (MRS). The seizure model initially involved injection of pilocarpine (380 mg/kg i.p.) alone (Ikonomidou-Turski et al., 1988), however all rats undergoing this procedure died before MRS data could be obtained. A more recent model by Jeong et al. (2017) was adopted, where a lower dose of pilocarpine (25 mg/kg i.p.) was preceded by lithium chloride (127 mg/kg i.p.) 19 hours before, and scopolamine (2 mg/kg i.p.) 30 min. before, pilocarpine. Injection of pilocarpine induced status epilepticus about 20-30 min post-pilocarpine (Jeong et al., 2017). Pascente et al. (2016) also used lithium chloride 18 hours before pilocarpine. Scopolamine was also used by Behr et al. (2017) 30 m in before pilocarpine. Electroencephalography (EEG) was used in the Behr et al. study to confirm seizures.
A MRI contrast agent, Gd-DTPA (gadolinium diethylene triamine penta acetic acid) was used to establish if there was increased BBB permeability. […] Three brain regions were assessed: hippocampus, thalamus and cerebral cortex. […] This may be due to the variability in the change in MRI signal intensity in the seizure group, and the low number of rats per group. The smaller variability in the saline-treated controls was due to the large […] of n=25 (obtained from a previous study conducted in the Towner group). […] The saline-treated controls were used for all statistical comparisons.

[4] = Stability study of MFA analogs in acetonitrile and distilled water, 1 day and 7 days, visual and HPLC; format: physicochemical; settings: for Stability in acetonitrile and in distilled water up to 7 days: 4° C. and room temperature (~25° C.); for Stability 1 Day ACN 4° C. / Stability 7 Day ACN 4° C. / Stability 1 Day ACN RT / Stability 7 Day ACN RT: acetonitrile; for Stability 7 Day ACN 4° C. / Stability 7 Day ACN RT / Stability 7 Day DW 4° C. / Stability 7 Day DW RT: 7 days; for Stability 1 Day ACN RT / Stability 7 Day ACN RT / Stability 1 Day DW RT / Stability 7 Day DW RT: room temperature (~25° C.); for Stability 1 Day DW 4° C. / Stability 7 Day DW 4° C. / Stability 1 Day DW RT / Stability 7 Day DW RT: distilled water; for Stability in acetonitrile / Stability in distilled water after 1 day: after 1 day
Description: Therapeutic agents stable after 1 day were subjected to a 7 day stability study.
FIG. 1 provides the HPLC chromatogram of MFA-NIC showing stability of the modified drug kept at room temperature on day seven. FIG. 2 provides the HPLC chromatogram of MFA-MeNIC showing stability of the modified drug kept at room temperature on day seven.

[5] = test system: pilocarpine-induced seizure rats; test: EEG of seizure episodes in rat seizure model; format: in vivo; settings: preliminary data
[6] = test system: pilocarpine-induced seizure rats; test: Brain metabolite levels by MR spectroscopy (ratios to Cho) in rat seizure pre-clinical model; format: in vivo
Protocol: Assessments were conducted using Contrast-enhanced (CE) magnetic resonance (MR) imaging (MRI) and MR spectroscopy (MRS). […] A more recent model by Jeong et al. (2017) was adopted, where a lower dose of pilocarpine (25 mg/kg i.p.) was preceded by lithium chloride (127 mg/kg i.p.) 19 hours before, and scopolamine (2 mg/kg i.p.) 30 min. before, pilocarpine. Injection of pilocarpine induced status epilepticus about 20-30 min post-pilocarpine (Jeong et al., 2017).
MRS was used to assess levels of brain metabolites, including N-acetyl aspartate (NAA), total creatine (Cr, total choline (Cho), taurine (Tau), glutamate (Glu) and myo-inositol (Myo-Ins). Cho was used as a normalization reference for all other metabolites. For the control group a total of 10 rats were assessed. For all other treatment groups n=5.

[7] = cerebral cortex, 50 mg/kg via gavage
[8] = cerebral cortex, 200 mg/kg via gavage
[9] = distilled water, water, solvent DW (distilled water), read-out: Solubility after molecular weight correction factor
[10] = distilled water, water, solvent DW (distilled water), read-out: Solubility in NS and DW
[11] = normal saline, saline or isotonic, solvent NS (normal saline), read-out: Solubility after molecular weight correction factor
[12] = normal saline, saline or isotonic, solvent NS (normal saline), read-out: Solubility in NS and DW
[13] = 200 mg/kg dose, found most effective
[14] = central brain region (primarily hippocampus), 10 mg/kg via gavage

Q: For Cc1cccc(Nc2ccccc2C(=O)O)c1C [MFA, N-(2,3-Dimethylphenyl)anthranilic acid, reference compound], which “Aqueous solubility checked on HPLC” value [1] is on record?
A: Its value is “No peak”.

Q: And the “Area (HPLC)” value ([1]; solvent DW (distilled water))?
A: The value was “No Peak”.

Q: What about the “Area (HPLC)” value ([1]; solvent NS (normal saline)) of the same molecule?
A: The value was “No Peak”.

Q: And the “Aqueous solubility on visual inspection” value ([1]; water)?
A: Its value is “insoluble”.

Q: What about the Water solubility [2] of the same molecule?
A: Its Water solubility is 0.004%.

Q: And the “BBB permeability vs saline-treated controls” value [3, 7]?
A: The value was “significant increase”.

Q: What about the “BBB permeability vs saline-treated controls” value [3, 8] of the same molecule?
A: Its value is “significant increase”.

Q: What about the “BBB permeability vs saline-treated controls” value ([3]; hippocampus, 50 mg/kg via gavage) of the same molecule?
A: Its value is “significant increase”.

Q: And the “BBB permeability vs saline-treated controls” value ([3]; thalamus, 50 mg/kg via gavage)?
A: Its value is “significant increase”.

Q: And the “BBB permeability vs saline-treated controls” value ([3]; thalamus, 200 mg/kg via gavage)?
A: The value was “significant increase”.

Q: What does the source list for Cc1cccc(Nc2ccccc2C(=O)OC[n+]2cccc(C(=O)N(C)C)c2)c1C [MFA-2MeNIC, MFA- N,N-Dimethylnicotinamide N-Methylnicotinamide]?
A: Stability in acetonitrile and in distilled water up to 7 days [4]: stable; Stability 1 Day ACN 4° C. [4]: Stable; Stability 7 Day ACN 4° C. [4]: Stable; Stability 1 Day ACN RT [4]: Stable; Stability 7 Day ACN RT [4]: Stable; Stability 1 Day DW 4° C. [4]: Stable; Stability 7 Day DW 4° C. [4]: Stable; Stability 1 Day DW RT [4]: Stable; Stability 7 Day DW RT [4]: Stable; Aqueous solubility checked on HPLC [1]: much higher; solubility [1, 9]: 180 µg/mL; solubility [1, 10]: 390 µg/mL; solubility [1, 11]: 330 µg/mL; solubility [1, 12]: 720 µg/mL; Area (HPLC) ([1]; solvent DW (distilled water)): 9876828; Area (HPLC) ([1]; solvent NS (normal saline)): 18274457; Aqueous solubility on visual inspection ([1]; water): significantly higher

Q: Which “Stability in acetonitrile and in distilled water up to 7 days” value [4] does the source give for CNC(=O)c1ccc[n+](COC(=O)c2ccccc2Nc2cccc(C)c2C)c1 [MFA-MeNIC, MFA- N-Methylnicotinamide] here?
A: The value was “stable”.

Q: What about the “Stability 1 Day ACN 4° C.” value [4] of the same molecule?
A: The value was “Stable”.

Q: And the “Stability 7 Day ACN 4° C.” value [4]?
A: Its value is “Stable”.

Q: What about the “Stability 1 Day ACN RT” value [4] of the same molecule?
A: The value was “Stable”.

Q: What about the “Stability 7 Day ACN RT” value [4] of the same molecule?
A: Its value is “Stable”.

Q: What about the “Stability 1 Day DW 4° C.” value [4] of the same molecule?
A: Its value is “Stable”.

Q: And the “Stability 7 Day DW 4° C.” value [4]?
A: The value was “Stable”.

Q: And the “Stability 1 Day DW RT” value [4]?
A: The value was “Stable”.

Q: And the “Stability 7 Day DW RT” value [4]?
A: The value was “Stable”.

Q: What about the “Aqueous solubility checked on HPLC” value [1] of the same molecule?
A: Its value is “much higher”.

Q: And the solubility [1, 9]?
A: The solubility was 200 µg/mL.

Q: What about the solubility [1, 10] of the same molecule?
A: The solubility was 460 µg/mL.

Q: And the solubility [1, 11]?
A: Its solubility is 270 µg/mL.

Q: And the solubility [1, 12]?
A: The solubility was 600 µg/mL.

Q: And the “Area (HPLC)” value ([1]; solvent DW (distilled water))?
A: Its value is 10643970.

Q: What about the “Area (HPLC)” value ([1]; solvent NS (normal saline)) of the same molecule?
A: The value was 13844823.

Q: What about the “Aqueous solubility on visual inspection” value ([1]; water) of the same molecule?
A: The value was “significantly higher”.

Q: With Cc1cccc(Nc2ccccc2C(=O)OCOC(=O)c2ccc[n+](C)c2)c1C [MFA-MeNICA, MFA-N-methylnicotinic acid] as the molecule, how does the “Stability 1 Day ACN 4° C.” value [4] read?
A: The value was “Stable”.

Q: What about the “Stability 1 Day ACN RT” value [4] of the same molecule?
A: The value was “Stable”.

Q: And the Stability in acetonitrile [4]?
A: Its Stability in acetonitrile is “stable”.

Q: And the “Stability in distilled water after 1 day” value [4]?
A: Its value is “unstable”.

Q: Which “Stability in acetonitrile and in distilled water up to 7 days” value [4] does the source give for Cc1cccc(Nc2ccccc2C(=O)OC[n+]2cccc(C(N)=O)c2)c1C [MFA-NIC, MFA-Nicotinamide] here?
A: Its value is “stable”.

Q: What about the “Stability 1 Day ACN 4° C.” value [4] of the same molecule?
A: The value was “Stable”.

Q: What about the “Stability 7 Day ACN 4° C.” value [4] of the same molecule?
A: Its value is “Stable”.

Q: And the “Stability 1 Day ACN RT” value [4]?
A: The value was “Stable”.

Q: What about the “Stability 7 Day ACN RT” value [4] of the same molecule?
A: The value was “Stable”.

Q: What about the “Stability 1 Day DW 4° C.” value [4] of the same molecule?
A: The value was “Stable”.

Q: And the “Stability 7 Day DW 4° C.” value [4]?
A: The value was “Stable”.

Q: What about the “Stability 1 Day DW RT” value [4] of the same molecule?
A: The value was “Stable”.

Q: And the “Stability 7 Day DW RT” value [4]?
A: The value was “Stable”.

Q: What about the “Aqueous solubility checked on HPLC” value [1] of the same molecule?
A: The value was “much higher”.

Q: And the solubility [1, 9]?
A: The solubility was 130 µg/mL.

Q: And the solubility [1, 10]?
A: Its solubility is 280 µg/mL.

Q: What about the solubility [1, 11] of the same molecule?
A: Its solubility is 40 µg/mL.

Q: And the solubility [1, 12]?
A: The solubility was 100 µg/mL.

Q: What about the “Area (HPLC)” value ([1]; solvent DW (distilled water)) of the same molecule?
A: The value was 6867539.

Q: And the “Area (HPLC)” value ([1]; solvent NS (normal saline))?
A: Its value is 2350506.

Q: What about the “Aqueous solubility on visual inspection” value ([1]; water) of the same molecule?
A: The value was “significantly higher”.

Q: And the “Level of seizure episodes (EEG)” value [5]?
A: The value was “does reduce the level of seizure episodes”.

Q: And the “Brain metabolite levels, overall effect” value [6, 13]?
A: Its value is “effective in restoring brain metabolite levels back to normal”.

Q: What about the “Myo-Ins/Cho ratio vs control (non-treated, non-seizure) group” value [6, 14] of the same molecule?
A: Its value is “significant decrease”.

Q: And the “NAA/Cho ratio vs control (non-treated, non-seizure) group” value [6, 14]?
A: Its value is “significant decrease”.

Q: What about the “BBB permeability, overall effect” value [3, 13] of the same molecule?
A: The value was “effective in preventing an increase in BBB permeability”.

Q: And the “BBB permeability vs saline-treated controls” value ([3]; cerebral cortex, 10 mg/kg via gavage)?
A: The value was “not significantly different”.

Q: And the “BBB permeability vs saline-treated controls” value [3, 7]?
A: Its value is “significant increase”.

Q: What about the “BBB permeability vs saline-treated controls” value [3, 8] of the same molecule?
A: Its value is “not significantly different”.

Q: What about the “BBB permeability vs saline-treated controls” value ([3]; hippocampus, all doses (10, 50 or 200 mg/kg via gavage)) of the same molecule?
A: Its value is “None of the MFA-NIC (shown in FIGS. 4-11 as pro-MFA or pMFA)-treated rats were found to be significantly different”.

Q: And the “BBB permeability vs saline-treated controls” value ([3]; thalamus, all doses (10, 50 or 200 mg/kg via gavage))?
A: The value was “None of the MFA-NIC (pro-MFA or pMFA)-treated rats were found to be significantly different”.

Q: What does the source list for Cc1cccc(Nc2ccccc2C(=O)OCOC(=O)c2ccc[n+](COC(=O)NC(C)C)c2)c1C [MFA-PCA, MFA-Pyridinium, 3-carboxy-1-[N-(1-methylethyl)carbamic acid]]?
A: Stability in acetonitrile [4]: not found to be stable; Stability in distilled water after 1 day [4]: not found to be stable
